For data set [1] the following is noted: free base (non-protonated) nicotine; cited from earlier work.

The values below come from US20240189297A1 (priority 2021, published 2024).

Where two headings read alike, the source gives them in different places.

Turning to `CN1CCCC1c1cccnc1` (stereo not drawn) [nicotine, 3-(1-methyl-2-pyrrolidinyl) pyridine], the pKa value entry in data set [1] is “about 8”. For the same compound, the “partition coefficient (oil phase : aqueous phase)” value was “greater than 1” (Samples 1-4: MCT oil vs DI water, basified DI water pH 7.4, artificial saliva pH 6.8, acidified DI water pH 2) and “less than 1” (Samples 5-8: MCT, triacetin or triolein oil vs 1M acetic acid pH adjuster, pH 2).
